Values after ≈ are worked out from the molar mass of the structure shown.
Tested on: M. tuberculosis SIRE Ciprofloxacin resistant 22/22
Assay: tuberculostatic activity, broth microdilution MIC (Alamar blue)
Type: cell-based, Mycobacterium tuberculosis
Details: not given

**Q.** With `CO[C@H]1/C=C/O[C@@]2(C)Oc3c(C)c(O)c4c(O)c(c(/C=N/N5CCN(C)CC5)c(O)c4c3C2=O)NC(=O)/C(C)=C\C=C\[C@H](C)[C@H](O)[C@@H](C)[C@@H](O)[C@@H](C)[C@H](OC(C)=O)[C@@H]1C` [Rifampicin, reference compound] as the compound, how does the activity in words read?
**A.** no activity

Same assay, conditions: Mycobacterium tuberculosis, read-out: Minimal inhibitory concentration

**Q.** Which MIC does the source give for `CO[C@H]1/C=C/O[C@@]2(C)Oc3c(C)c(O)c4c(O)c(c(/C=N/N5CCN(C)CC5)c(O)c4c3C2=O)NC(=O)/C(C)=C\C=C\[C@H](C)[C@H](O)[C@@H](C)[C@@H](O)[C@@H](C)[C@H](OC(C)=O)[C@@H]1C` [Rifampicin, reference compound] here?
**A.** 256 µg/mL (≈ 311 µM)

**Q.** Which MIC does the source give for `CC(=O)NC[C@H]1CN(c2ccc(N3CCOCC3)c(F)c2)C(=O)O1` [Linezolid, reference compound] here?
**A.** 8 µg/mL (≈ 23.7 µM)

Same assay, conditions: Mycobacterium tuberculosis; read-out: Minimal inhibitory concentration

**Q.** For `CC1CCC(C(C)C)C(OC(=O)CCCCN2CCN(c3cc4c(cc3F)c(=O)c(C(=O)O)cn4C3CC3)CC2)C1` (stereo not drawn) [Compound 5], which MIC is on record?
**A.** 16 µg/mL (≈ 28.1 µM)

**Q.** With `CC1CCC(C(C)C)C(OC(=O)CN2CCN(c3cc4c(cc3F)c(=O)c(C(=O)O)cn4C3CC3)CC2)C1` (stereo not drawn) [Compound 2] as the compound, how does the MIC read?
**A.** 16 µg/mL (≈ 30.3 µM)

**Q.** Which MIC does the source give for `CC[C@@H](CO)NCCN[C@@H](CC)CO` [Ethambutol, reference compound] here?
**A.** 4 µg/mL (≈ 19.6 µM)

**Q.** `Cc1ccc(C(C)C)c(OC(=O)CCCCN2CCN(c3cc4c(cc3F)c(=O)c(C(=O)O)cn4C3CC3)CC2)c1` [Compound 13] was tested. Which MIC did it give?
**A.** 32 µg/mL (≈ 56.8 µM)

**Q.** `[H]/N=C(/N)N[C@H]1[C@H](O)[C@@H](O)[C@H](O[C@@H]2O[C@@H](C)[C@](O)(C=O)[C@H]2O[C@@H]2O[C@@H](CO)[C@H](O)[C@@H](O)[C@@H]2NC)[C@@H](N/C(N)=N\[H])[C@@H]1O` [Streptomycin, reference compound] was tested. Which MIC did it give?
**A.** 32 µg/mL (≈ 55 µM)

**Q.** For `Cc1ccc(C(C)C)c(OCC(=O)N2CCN(c3cc4c(cc3F)c(=O)c(C(=O)O)cn4C3CC3)CC2)c1` [Compound 9], which MIC is on record?
**A.** 128 µg/mL (≈ 245 µM)

**Q.** With `Cc1ccc(C(C)C)c(OC(=O)CCCCCOC(=O)c2cn(C3CC3)c3cc(N4CCN(CCCCCC(=O)Oc5cc(C)ccc5C(C)C)CC4)c(F)cc3c2=O)c1` [Compound 16] as the compound, how does the MIC read?
**A.** 256 µg/mL (≈ 311 µM)

**Q.** How did the MIC turn out when `CC1CCC(C(C)C)C(OC(=O)CCCCCOC(=O)c2cn(C3CC3)c3cc(N4CCN(CCCCCC(=O)OC5CC(C)CCC5C(C)C)CC4)c(F)cc3c2=O)C1` (stereo not drawn) [Compound 8] was run?
**A.** 256 µg/mL (≈ 306 µM)

**Q.** Which MIC does the source give for `CC(C)[C@@H]1CC[C@@H](C)C[C@H]1OC(=O)CCCCCN1CCN(c2cc3c(cc2F)c(=O)c(C(=O)O)cn3C2CC2)CC1` [Compound 6, 1‐cyclopropyl‐6‐fluoro‐7‐{4‐[6‐((1R,2S,5R)‐2‐isopropyl‐5‐methylcyclohexyloxy)‐6‐oxohexyl]piperazin‐1‐yl}‐4‐oxo‐1,4‐dihydroquinoline‐3‐carboxylic acid] here?
**A.** 8 µg/mL (≈ 13.7 µM)

**Q.** For `Cc1ccc(C(C)C)c(OC(=O)CCN2CCN(c3cc4c(cc3F)c(=O)c(C(=O)O)cn4C3CC3)CC2)c1` [Compound 11], which MIC is on record?
**A.** 64 µg/mL (≈ 119 µM)

**Q.** Which MIC does the source give for `CC1CCC(C(C)C)C(OC(=O)CCCCOC(=O)c2cn(C3CC3)c3cc(N4CCN(CCCCC(=O)OC5CC(C)CCC5C(C)C)CC4)c(F)cc3c2=O)C1` (stereo not drawn) [Compound 7] here?
**A.** 256 µg/mL (≈ 317 µM)

**Q.** How did the MIC turn out when `NNC(=O)c1ccncc1` [Isoniazid, reference compound] was run?
**A.** 32 µg/mL (≈ 233 µM)

**Q.** How did the MIC turn out when `Cc1ccc(C(C)C)c(OC(=O)CN2CCN(c3cc4c(cc3F)c(=O)c(C(=O)O)cn4C3CC3)CC2)c1` [Compound 10] was run?
**A.** 128 µg/mL (≈ 245 µM)

**Q.** Which MIC does the source give for `CC1CCC(C(C)C)C(OC(=O)CCCN2CCN(c3cc4c(cc3F)c(=O)c(C(=O)O)cn4C3CC3)CC2)C1` (stereo not drawn) [Compound 4] here?
**A.** 16 µg/mL (≈ 28.8 µM)

**Q.** With `CC1CCC(C(C)C)C(OC(=O)CCN2CCN(c3cc4c(cc3F)c(=O)c(C(=O)O)cn4C3CC3)CC2)C1` (stereo not drawn) [Compound 3] as the compound, how does the MIC read?
**A.** 16 µg/mL (≈ 29.5 µM)

**Q.** `Cc1ccc(C(C)C)c(OC(=O)CCCN2CCN(c3cc4c(cc3F)c(=O)c(C(=O)O)cn4C3CC3)CC2)c1` [Compound 12] was tested. Which MIC did it give?
**A.** 32 µg/mL (≈ 58.2 µM)

**Q.** `Cc1ccc(C(C)C)c(OC(=O)CCCCCN2CCN(c3cc4c(cc3F)c(=O)c(C(=O)O)cn4C3CC3)CC2)c1` [Compound 14] was tested. Which MIC did it give?
**A.** 16 µg/mL (≈ 27.7 µM)

**Q.** `Cc1ccc(C(C)C)c(OC(=O)CCCOC(=O)c2cn(C3CC3)c3cc(N4CCN(CCCC(=O)Oc5cc(C)ccc5C(C)C)CC4)c(F)cc3c2=O)c1` [Compound 15] was tested. Which MIC did it give?
**A.** 256 µg/mL (≈ 333 µM)

**Q.** How did the MIC turn out when `CC1CCC(C(C)C)C(OCC(=O)N2CCN(c3cc4c(cc3F)c(=O)c(C(=O)O)cn4C3CC3)CC2)C1` (stereo not drawn) [Compound 1] was run?
**A.** 32 µg/mL (≈ 60.6 µM)

Tested on: M. tuberculosis SIRE Ciprofloxacin resistant 22/22
Assay: not given
Type: cell-based, Mycobacterium tuberculosis
Parameters: unit not given beside the values
Details: not given

**Q.** How did the “MIC for reference drug in the presence of derivative 6” value turn out when `CC(=O)NC[C@H]1CN(c2ccc(N3CCOCC3)c(F)c2)C(=O)O1` [Linezolid, reference compound] was run?
**A.** 4

**Q.** With `O=C(O)c1cn(C2CC2)c2cc(N3CCNCC3)c(F)cc2c1=O` [Ciprofloxacin, reference compound] as the compound, how does the “MIC for reference drug in the presence of derivative 6” value read?
**A.** 8

From paper PMC10539350 (Scientific Reports, 2023)
